Results on one molecule are retold here after patent US7001770B1, “Calpain inhibitors and their applications” (priority 1998, dated 2006).

For experiment [1], the system named is p53 and p21 protein levels in HLF cells. As to the kind of experiment: Western blot of p53 and p21 levels. It counts as cell-based. The following applies: 17 hours. As for the experimental part: (§1) FIG. 5 contains the results of Western blots measuring the levels of p53 and p21 in rAd-p53 infected cells in the presence of varying concentrations of CI-1. Above each lane is a “+” of “−” which indicates if the cells were pulsed with 1×10^9 rAd-p53 for one hour (+) or not (−). The row of numbers below indicates the μM concentration of CI-1 to which the cells were exposed at 17 hours post-infection. The upper row of chemiluminescent signals provides the levels of p53 while the lower row of chemiluminescent signals provides the levels of p21. […] When 5 μM CI-1 was added with rAd-p53, the levels of p53 increased two fold, as quantitated on NIH imaging.
(§2) At 17 hours post treatment, cells were lysed in protein lysis buffer (50 mM tris, 250 mM NaCl, 50 mM NaF, 5 mM EDTA and 0.1% NP-40 with 1 mM PMSF). Cell lysates were subjected to electrophoresis. 10 μg of protein was added per lane on a 12% polyacrylamide gel and transfered onto nitrocellulose membranes. The membranes were subjected to western blot analysis using antibodies specific for p53 or p21 (Calbiochem, p53 antibody Ab-6, and p21 antibody Ab-7). HRP-conjugated secondary antibody (Amersham) was added for one hour at which time the blots were washed. Blots were developed using enhanced chemiluminescence detection system (Amersham) and quantitated using NIH imaging analysis.
A general note: A western blot detects proteins with antibodies after separation by electrophoresis.

Experiment [2] relates to p53 and p21 protein levels in RKO cells. Nature of the experiment: Western blot of p53 and p21 levels. The class given is cell-based. To be noted: 17 hours. As for the experimental part:
as §1, §2

Another experiment deals with NF-kB. As to the kind of experiment: Gel shift assay. The class given is cell-based. To be noted: HLF cells; 10 μM CI-1; 24 hours post treatment. As for the experimental part:
(§3) The lanes on the gel are labelled as follows: Lane 1=DMF solvent alone control; Lane 2=10 μM CI-1; Lane 3=a null control vector based on ACN53 without the p53 transgene (ZZCB); Lane 4=ZZCB+10 μM CI-1; Lane 5=ACN53 alone and Lane 6=ACN53+ 10 μM CI-1. Panel A illustrates the induction of NF-kb upon administration of calpain inhibitor 1. Panel B illustrates the induction of AP-1 upon administration of calpain inhibitor 1.
(§4) In contrast to these studies, the present invention further provides a method of enhancing transcription of a therapeutic transgene from the CMV promoter. The term “enhancing transcription” refers to an increase in the transcriptional activity of those sequences operably linked to the CMV promter. The term CMV promoter means the immediate early promoter of the cytomegalovirus. The promoter may be isolated as a restriction endonuclease fragment from the commercially available vector pCMVβ (GenBank Accession Number U02451). […] The CMV promoter is a strong constituitive promoter widely utilized in the expression of exogenous transgenes from viral vectors. Recent reports indicated an upregulation of the CMV promoter driven genes in response to recombinant adenoviral infection. […] In response to calpain inhibitor 1 treatment, a 42% increase in NF-kB activation was detected, and a 50% increase in AP1 activation was detected as quantified by densitometer readings. […]
A general note: Mobility shift assays separate free from complexed probe on a gel.

Another experiment has as its system AP-1. Nature of the experiment: Gel shift assay. The class given is cell-based. The following applies: HLF cells; 10 μM CI-1; 24 hours post treatment. As for the experimental part: as §3, §4
A further experiment has as its system proteasome. To be noted: below 50 μM primarily an inhibitor of calpain; cited from earlier work.
Experiment [3] concerns JC (mouse mammary carcinoma, p53 mutant) cells. Nature of the experiment: Rodent cancer model, flank tumors. The following applies: calpain inhibitor alone, 60 mg/kg intraperitoneal. The class given is in vivo, mice. As for the experimental part: The in vitro results presented above were confirmed in a rodent cancer model. Briefly, healthy immune competent mice were injected with JC (mouse mammary carcinoma, p53 mutant) cells and tumors were permitted to form. This is a particularly rigorous model as JC cells are particularly difficult to infect and the mouse is an immunocompetent mouse capable of producing an immune response to the human adenovirus and/or the human p53 transgene. After 2 weeks, flank tumors were present in all animals. Calpain inhibitor was administered via intraperitoneal injection to a concentration of approximately 60 mg/kg approximately 24 hours prior to administration of the recombinant rAd-p53 virus. Appropriate control viruses and solutions were employed. The mice were injected with 1×10^10 particles of rAd-p53 per injection intratumorally in combination with intraperitoneally injected CI-1 at a concentration of 60 mg/kg for a period of 5 days, 2 days off and then for 5 more days. Tumor growth/regression was evaluated at Day 4, Day 8 and Day 11 post-treatment (FIGS. 12 A,B and C respectively). In all instances the rate of decrease in tumor growth was at least 40% reduction in fold increase in tumor volume in mice treated with calpain inhibitor 1 in addition to FTCB, in comparison with the mice treated with the FTCB vector alone.

Square brackets hold non-standard residues; d marks the D form. Peptide text beside a SMILES is read from it. Nle = CCCC[C@H](N)C(=O)O

With `CCCC[C@@H](C=O)NC(=O)[C@H](CC(C)C)NC(=O)[C@H](CC(C)C)NC(C)=O` [CI-1, N-acetyl-leu-leu-norleucinal] (Ac-Leu-Leu-[Nle]-aldehyde), the “increase in levels of p53 (NIH imaging)” value in experiment [1] (5 μM CI-1 added with 1×10^9 rAd-p53, versus rAd-p53 alone) is on record as “two fold”. Besides, the “increase in levels of p53 and p21” value in experiment [1] (10 μM CI-1 added with 1×10^9 rAd-p53) is “approximately three fold”. Also, the “increase in p53 and p21 levels” value in experiment [2] (5 μM CI-1 with 1×10^9 rAd-p53) is “two fold increase”. In addition, the “increase in p53 levels over rAd-p53 alone” value in experiment [2] (10 μM CI-1 with 1×10^9 rAd-p53) is given as “about a five fold increase”. The “increase in NF-kB activation (densitometer)” value in the experiment on NF-kB was found to be 42%. Further, the “increase in AP1 activation (densitometer)” value in the experiment with AP-1 is 50%. In addition, the “concentration above which CI-1 inhibits proteasome function” value in the experiment with proteasome is on record as “above 50 μM”. Besides, the antitumor effects entry in experiment [3] is listed as “significant antitumor effects”.
